Experiments:
truncated MMP-3 = assay: Bisacetylated Substance P/MMP-3 Fluorescent Assay; format: biochemical; settings: bisacetylated substrate with MMP-3
Text: Bisacetylated Substance P/MMP-3 Fluorescent Assay
A high capacity enzymatic assay was developed to detect potential inhibitors of MMP-3. The assay uses a derivative of a peptide substrate, substance P (Arg-Pro-Lys-Pro-Gln-Gln-Phe-Phe-Gly-Leu-Met), which is cleaved by MMP-3 exclusively at the glutamine-phenylalanine bond. In order to adapt this assay for high throughput screening, we have developed a fluorimetric method of product detection. The production of the hydrolysis product, substance P 7-11, is measured by reaction with fluorescamine, a fluorogenic compound which reacts with the primary amine of this fragment. The substance P substrate is bisacetylated to block the primary amines of the intact substrate. Thus, the resulting fluorescence represents generation of product (7-11 peptide) formed upon cleavage by MMP-3, and is quantitated using a standard curve prepared with known concentrations of 7-11 peptide.
To evaluate inhibition of MMP-3, compounds were prepared at a concentration of 10 mM in 100% methanol, and then further diluted to a 20× molar stock. Five microliters of each drug stock was added to the assay in the presence of 20 nM truncated MMP-3 in 67.5 mM tricine (pH 7.5), 10 mM CaCl2, 40 mM NaCl, and 0.005% Brij 35 in a final volume of 100 microliters. Bisacetylated substance P ([…]) was added, and the assay was run for 1 hour at 25° C. […]

[1] = Ex Vivo Assay for Bioavailability of MMP-3 Inhibitors (plasma level after dosing); format: in vivo; settings: rat, po; rats, dosed orally at 100 mg/kg; plasma level read via MMP-3 inhibition against a spiked plasma standard curve
Experimental: Ex Vivo Assay for Bioavailability of MMP-3 Inhibitors
Blood was collected by cardiac puncture from rats at different times after dosing I.V., I.P., or P.O. with compound in order to determine the levels of inhibitor present. Plasma was extracted with 10% TCA in 95% methanol, and placed on ice for 10 minutes. The plasma was then centrifuged for 15 minutes at 14,000 rpm in an Eppendorf microcentrifuge. The supernatant was removed, recentrifuged, and the resulting supernatant was diluted 1:10 in 50 mM tricine, pH 8.5. The pH of the sample was adjusted to 7.5, and then assayed in the MMP-3 substance P fluorescent enzymatic assay. Plasma from naive rats was extracted by the same method and used as a negative control. This plasma was also used to prepare a spiked plasma curve of the compound of interest. Known concentrations of the compound were added to control plasma, the plasma was extracted by the same method, and then assayed in the MMP-3 enzymatic assay. A standard curve was prepared that related percent inhbition in the MMP-3 assay to the concentration of drug added in the spiked samples. Based on the percent inhibition in the presence of plasma from dosed rats, the concentration of compound was determined using the standard curve.

truncated MMP-3, sequence (P08254 100-272 limits assumed): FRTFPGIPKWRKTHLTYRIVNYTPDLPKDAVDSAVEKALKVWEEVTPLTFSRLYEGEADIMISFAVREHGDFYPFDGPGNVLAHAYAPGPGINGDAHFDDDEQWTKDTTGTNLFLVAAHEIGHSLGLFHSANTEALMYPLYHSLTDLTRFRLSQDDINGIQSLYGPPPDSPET

Compound	Km (truncated MMP-3) [µM]	Vmax (truncated MMP-3) [nmoles 7-11 peptide/min]	Cmax [1] [nM]
bisacetylated substrate: bisacetylated derivative of peptide substrate substance P (Arg-Pro-Lys-Pro-Gln-Gln-Phe-Phe-Gly-Leu-Met), cleaved by MMP-3	769 ± 52	0.090±0.003	
CC(C)C[C@@H](C(=O)N[C@H](c1nc2cc(Cl)ccc2[nH]1)C(C)(C)C)[C@H](O)C(=O)NO [Example 86, N-[1(S)-(5-chloro-2-benzimidazolyl)-2,2,2-trimethylethyl]-[3-(N-hydroxyaminocarbonyl)-3(S)-hydroxy-2(R)-isobutyl]propanamide]			960

From patent US5703092A, “Hydroxamic acid compounds as metalloprotease and TNF inhibitors” (The DuPont Merck Pharmaceutical Company, priority 1996, dated 1997)
